Tests used:
[1] = system: Caco-2 cells (clone C2BBe1); experiment: CACO-2 permeability; type: in vitro ADME; design: unit not given here; conditions: for DM Caco2 A to B: apical to basolateral, donor pH 6.5, receiver pH 7.4; for DM Caco2 B to A: basolateral to apical
Outline: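 A-to-B and B-to-A flux measured by LC-MS/MS from receiver samples taken at 1 and 2 h, with donor sampled at 0 and 2 h and recovery checked. Buffers: pH 6.5 HBSS with 200 μM BNPP on the donor side, pH 7.4 with BSA on the receiver side. Monolayers were 21-day cultures, TEER-verified, in duplicate wells.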

[2] = system: Respiratory syncytial virus recombinant with luciferase (RSV-Luc5) in HEp-2 cells; experiment: microbe, parasite or virus in culture; type: cell-based; conditions: human respiratory syncytial virus, HEp-2, read-out: EC50 RSVFluc-Hep2 384 V2
[3] = CC50 MT4 cytotoxicity (Cell-Titer Glo); type: cell-based; conditions: human
Outline: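 CC50 values are the concentrations cutting viability by 50%, fitted by non-linear regression against untreated (100%) and 2 μM puromycin (0%) controls. Cell-Titer Glo luminescence measured after 4-5 days at 37° C exposure of uninfected MT-4 and HEp-2 cells to 3-fold dilutions spanning 15 nM to 100,000 nM.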

Plasma stability = type: in vitro ADME; design: unit not given here; conditions: 37° C., 2 μM substrate
Outline: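 LC-MS (Q-Exactive, 5 ppm tolerance, 0.1% formic acid water/acetonitrile gradient) quantified compound in quenched aliquots. Aliquots were taken at 0.05, 0.5, 1, 2, 3 and 4 hr and quenched with internal-standard solution, and supernatants were diluted with water after centrifugation.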

[4] = system: Respiratory syncytial virus recombinant with luciferase (RSV-Luc5) in Normal Human Bronchial Epithelial (NHBE) cells; experiment: microbe, parasite or virus in culture; type: cell-based; conditions: read-out: EC50 RSVFluc-NHBE 384 V2
[5] = system: SARS Coronavirus 2 recombinant with NanoLuc (SARS-CoV2-NLuc) in A549-hACE2 cells; experiment: microbe, parasite or virus in culture; type: cell-based; conditions: A549; read-out: EC50 SARS CoV2 NanoLuc A549 384
[6] = GI S9 stability - no PMSF; type: in vitro ADME; conditions: pH 7.4; human intestinal S9, PMSF-free; read-out: GIS9-HUMAN-NoPMSF T1/2
Outline: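 Stability was assessed by Q-Exactive LC-MS peak area ratios against internal standard, tracking loss of parent and appearance of nucleoside metabolite Reference Compound A. Incubations used 2 μM compound in 1 mg/mL intestinal S9 without PMSF (PBS, pH 7.4), with six samples taken over 120 min.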

**Q.** Which “DM Caco2 A to B” value [1] does the source give for N#C[C@@]1(c2ccc3c(N)ncnn23)O[C@H](COC(=O)OCC2CC(F)(F)C2)[C@@H](O)[C@H]1O [Compound 115, ((2R,3S,4R,5R)-5-(4-aminopyrrolo[2,1-f][1,2,4]triazin-7-yl)-5-cyano-3,4-dihydroxytetrahydrofuran-2-yl)methyl ((3,3-difluorocyclobutyl)methyl) carbonate] here?
**A.** 0.91

**Q.** And the “DM Caco2 B to A” value [1]?
**A.** 8.32

**Q.** And the EC50 [2]?
**A.** 228 nM

**Q.** What about the CC50 [3] of the same compound?
**A.** > 50000 nM

**Q.** And the logD (physchem)?
**A.** 1.4

**Q.** What about the “STA Human Plasma 37” value (Plasma stability) of the same compound?
**A.** 41.2

**Q.** And the EC50 [4]?
**A.** 990 nM

**Q.** And the EC50 [5]?
**A.** 1760 nM

**Q.** And the half-life at 2 µM [6]?
**A.** 34.9 s

**Q.** For N#C[C@@]1(c2ccc3c(N)ncnn23)O[C@H](COC(=O)OCC2(c3ccccc3)CC2)[C@@H](O)[C@H]1O [Compound 116, ((2R,3S,4R,5R)-5-(4-aminopyrrolo[2,1-f][1,2,4]triazin-7-yl)-5-cyano-3,4-dihydroxytetrahydrofuran-2-yl)methyl ((1-phenylcyclopropyl)methyl) carbonate], which “DM Caco2 A to B” value [1] is on record?
**A.** 4.18

**Q.** And the “DM Caco2 B to A” value [1]?
**A.** 17.53

**Q.** What about the EC50 [2] of the same compound?
**A.** 321 nM

**Q.** And the CC50 [3]?
**A.** > 50000 nM

**Q.** And the logD (physchem)?
**A.** 2.1

**Q.** What about the “STA Human Plasma 37” value (Plasma stability) of the same compound?
**A.** 26.4

**Q.** What about the EC50 [4] of the same compound?
**A.** 864 nM

**Q.** What about the EC50 [5] of the same compound?
**A.** 822 nM

**Q.** What about the half-life at 2 µM [6] of the same compound?
**A.** 37.8 s

**Q.** Which results are given for CC1(C)CC(COC(=O)OC[C@H]2O[C@@](C#N)(c3ccc4c(N)ncnn34)[C@H](O)[C@@H]2O)C1 [Compound 117, ((2R,3S,4R,5R)-5-(4-aminopyrrolo[2,1-f][1,2,4]triazin-7-yl)-5-cyano-3,4-dihydroxytetrahydrofuran-2-yl)methyl ((3,3-dimethylcyclobutyl)methyl) carbonate]?
**A.** DM Caco2 A to B [1]: 6.18; DM Caco2 B to A [1]: 10.53; EC50 [2]: 494 nM; CC50 [3]: > 50000 nM; logD (physchem): 2.3; STA Human Plasma 37 (Plasma stability): 86; EC50 [4]: 1380 nM; EC50 [5]: 778 nM; half-life at 2 µM [6]: 37 s

**Q.** For N#CC1(COC(=O)OC[C@H]2O[C@@](C#N)(c3ccc4c(N)ncnn34)[C@H](O)[C@@H]2O)CC1 [Compound 118, ((2R,3S,4R,5R)-5-(4-aminopyrrolo[2,1-f][1,2,4]triazin-7-yl)-5-cyano-3,4-dihydroxytetrahydrofuran-2-yl)methyl ((l-cyanocyclopropyl)methyl) carbonate], which “DM Caco2 A to B” value [1] is on record?
**A.** 0.07

**Q.** What about the “DM Caco2 B to A” value [1] of the same compound?
**A.** 1.67

**Q.** And the EC50 [2]?
**A.** 1760 nM

**Q.** And the CC50 [3]?
**A.** > 50000 nM

**Q.** What about the logD (physchem) of the same compound?
**A.** 0.7

**Q.** What about the “STA Human Plasma 37” value (Plasma stability) of the same compound?
**A.** 59.4

**Q.** And the EC50 [4]?
**A.** 1820 nM

**Q.** And the EC50 [5]?
**A.** 6800 nM

**Q.** What about the half-life at 2 µM [6] of the same compound?
**A.** 247 s

**Q.** For N#CCC1(COC(=O)OC[C@H]2O[C@@](C#N)(c3ccc4c(N)ncnn34)[C@H](O)[C@@H]2O)CC1 [Compound 119, ((2R,3S,4R,5R)-5-(4-aminopyrrolo[2,1-f][1,2,4]triazin-7-yl)-5-cyano-3,4-dihydroxytetrahydrofuran-2-yl)methyl ((1-(cyanomethyl)cyclopropyl)methyl) carbonate], which “DM Caco2 A to B” value [1] is on record?
**A.** 0.07

**Q.** What about the “DM Caco2 B to A” value [1] of the same compound?
**A.** 1.91

**Q.** What about the EC50 [2] of the same compound?
**A.** 2200 nM

**Q.** What about the CC50 [3] of the same compound?
**A.** > 50000 nM

**Q.** And the logD (physchem)?
**A.** 0.9

**Q.** What about the “STA Human Plasma 37” value (Plasma stability) of the same compound?
**A.** 40.7

**Q.** What about the EC50 [4] of the same compound?
**A.** 2190 nM

**Q.** And the EC50 [5]?
**A.** 8820 nM

**Q.** And the half-life at 2 µM [6]?
**A.** 179 s

**Q.** What does the source list for N#C[C@@]1(c2ccc3c(N)ncnn23)O[C@H](COC(=O)OCC2(C(F)(F)F)CC2)[C@@H](O)[C@H]1O [Compound 120, ((2R,3S,4R,5R)-5-(4-aminopyrrolo[2,1-f][1,2,4]triazin-7-yl)-5-cyano-3,4-dihydroxytetrahydrofuran-2-yl)methyl ((1-(trifluoromethyl)cyclopropyl)methyl) carbonate]?
**A.** DM Caco2 A to B [1]: 0.77; DM Caco2 B to A [1]: 8.35; EC50 [2]: 816 nM; CC50 [3]: > 50000 nM; logD (physchem): 1.6; STA Human Plasma 37 (Plasma stability): 38.7; EC50 [4]: 1260 nM; EC50 [5]: 1410 nM; half-life at 2 µM [6]: 36.3 s

**Q.** With N#CC12CC(COC(=O)OC[C@H]3O[C@@](C#N)(c4ccc5c(N)ncnn45)[C@H](O)[C@@H]3O)(C1)C2 [Compound 121, ((2R,3S,4R,5R)-5-(4-aminopyrrolo[2,1-f][1,2,4]triazin-7-yl)-5-cyano-3,4-dihydroxytetrahydrofuran-2-yl)methyl ((3-cyanobicyclo[1.1.1]pentan-1-yl)methyl) carbonate] as the compound, how does the “DM Caco2 A to B” value [1] read?
**A.** 0.08

**Q.** What about the “DM Caco2 B to A” value [1] of the same compound?
**A.** 4.15

**Q.** What about the EC50 [2] of the same compound?
**A.** 1510 nM

**Q.** What about the CC50 [3] of the same compound?
**A.** > 50000 nM

**Q.** What about the logD (physchem) of the same compound?
**A.** 1.1

**Q.** What about the “STA Human Plasma 37” value (Plasma stability) of the same compound?
**A.** 107.7

**Q.** And the EC50 [4]?
**A.** 1560 nM

**Q.** And the EC50 [5]?
**A.** 7970 nM

**Q.** And the half-life at 2 µM [6]?
**A.** 95 s

**Q.** For CC1(COC(=O)OC[C@H]2O[C@@](C#N)(c3ccc4c(N)ncnn34)[C@H](O)[C@@H]2O)CCCC1 [Compound 123, ((2R,3S,4R,5R)-5-(4-aminopyrrolo[2,1-f][1,2,4]triazin-7-yl)-5-cyano-3,4-dihydroxytetrahydrofuran-2-yl)methyl ((1-methylcyclopentyl)methyl) carbonate], which “DM Caco2 A to B” value [1] is on record?
**A.** 3.18

**Q.** What about the “DM Caco2 B to A” value [1] of the same compound?
**A.** 9.88

**Q.** What about the EC50 [2] of the same compound?
**A.** 720 nM

**Q.** And the CC50 [3]?
**A.** > 50000 nM

**Q.** And the logD (physchem)?
**A.** 2.2

**Q.** And the “STA Human Plasma 37” value (Plasma stability)?
**A.** 96.5

**Q.** What about the EC50 [4] of the same compound?
**A.** 1810 nM

**Q.** What about the EC50 [5] of the same compound?
**A.** 1160 nM

**Q.** And the half-life at 2 µM [6]?
**A.** 36.9 s

**Q.** Which “DM Caco2 A to B” value [1] does the source give for CCCCCCCCCCOC(=O)OC[C@H]1O[C@@](C#N)(c2ccc3c(N)ncnn23)[C@H](O)[C@@H]1O [Compound 124, ((2R,3S,4R,5R)-5-(4-aminopyrrolo[2,1-f][1,2,4]triazin-7-yl)-5-cyano-3,4-dihydroxytetrahydrofuran-2-yl)methyl decyl carbonate] here?
**A.** 0.08

**Q.** What about the “DM Caco2 B to A” value [1] of the same compound?
**A.** 7.35

**Q.** What about the EC50 [2] of the same compound?
**A.** 723 nM

**Q.** And the CC50 [3]?
**A.** 27600 nM

**Q.** What about the logD (physchem) of the same compound?
**A.** 3.7

**Q.** And the “STA Human Plasma 37” value (Plasma stability)?
**A.** 192.3

**Q.** What about the EC50 [4] of the same compound?
**A.** 625 nM

**Q.** What about the EC50 [5] of the same compound?
**A.** 1140 nM

**Q.** What about the half-life at 2 µM [6] of the same compound?
**A.** 44.6 s

**Q.** With N#C[C@@]1(c2ccc3c(N)ncnn23)O[C@H](COC(=O)OC23CC4CC(CC(C4)C2)C3)[C@@H](O)[C@H]1O [Compound 154, (3S,5S,7S)-adamantan-1-yl (((2R,3S,4R,5R)-5-(4-aminopyrrolo[2,1-f][1,2,4]-triazin-7-yl)-5-cyano-3,4-dihydroxytetrahydrofuran-2-yl)methyl) carbonate] as the compound, how does the “DM Caco2 A to B” value [1] read?
**A.** 2.08

**Q.** And the “DM Caco2 B to A” value [1]?
**A.** 14.67

**Q.** What about the EC50 [2] of the same compound?
**A.** 11700 nM

**Q.** What about the CC50 [3] of the same compound?
**A.** > 50000 nM

**Q.** And the logD (physchem)?
**A.** 2.6

**Q.** What about the “STA Human Plasma 37” value (Plasma stability) of the same compound?
**A.** 1584

**Q.** What about the EC50 [4] of the same compound?
**A.** 11000 nM

**Q.** And the EC50 [5]?
**A.** 34000 nM

**Q.** And the half-life at 2 µM [6]?
**A.** 16700 s

**Q.** With CC1=CCC(C(C)(C)OC(=O)OC[C@H]2O[C@@](C#N)(c3ccc4c(N)ncnn34)[C@H](O)[C@@H]2O)CC1 (stereo partly drawn) [Compound 155, ((2R,3S,4R,5R)-5-(4-aminopyrrolo[2,1-f][1,2,4]triazin-7-yl)-5-cyano-3,4-dihydroxytetrahydrofuran-2-yl)methyl (2-(4-methylcyclohex-3-en-1-yl)propan-2-yl) carbonate] as the compound, how does the “DM Caco2 A to B” value [1] read?
**A.** 3.06

**Q.** What about the “DM Caco2 B to A” value [1] of the same compound?
**A.** 10.35

**Q.** And the EC50 [2]?
**A.** 1570 nM

**Q.** And the CC50 [3]?
**A.** > 50000 nM

**Q.** What about the logD (physchem) of the same compound?
**A.** 2.8

**Q.** And the “STA Human Plasma 37” value (Plasma stability)?
**A.** 1584

**Q.** And the EC50 [4]?
**A.** 1120 nM

**Q.** And the EC50 [5]?
**A.** 3190 nM

**Q.** And the half-life at 2 µM [6]?
**A.** 4650 s
